Measured values taken from patent publication US20160045487A1, “COMPOSITIONS AND METHODS FOR TREATING NEUROPATHY” (CHILDEREN'S MEDICAL CENTER CORPORATION, priority 2013, published 2016).

Experiments:
[1] = test system: GFAP-DN-erbB4 and wild type mice; assay: Mechanical sensitivity (von Frey filaments); type: in vivo, mouse; details: after 4 weeks topical treatment, cream 1.5 mM
Method: (§1) As a first test, a cream containing XIB4035 (1.5 mM) was applied directly to the hind paws of GFAP-DN-erbB4 and wild type mice twice daily for a period of 4 weeks starting prior to symptom onset (P21). Mice of both genotypes were also treated with the base cream containing no drug for control. Mice were tested for responses to a noxious thermal stimulus prior to the initiation of treatment and every 7 days for the duration of the experiment.
Mechanical sensitivity was tested by simulation of the plantar surface of the hind paw with a series of von Frey filaments while the animal was placed on an elevated wire grid. The threshold was determined as the lowest force that evoked a visible withdrawal response. The use of animals was approved by the Animal Care and Use Committee of Children's Hospital Boston.

[2] = biological target: T1, GFRα1/RET (UniProt P35546+Q62997); assay: RET phosphorylation in N2A cells transfected with GFRα1; type: cell-based, rat GFRα1 in murine N2A cells
T1 construct: N2A cells (which express RET) transfected with GFRα1 or GFRα3 expression constructs; expressed in transfected cells; host or cells: Neuro2A (N2A) cells; GFRα1 plasmid was a gift from Dr. Milbrandt; RET is endogenous
T1 sequence (Q62997 25-430 limits assumed): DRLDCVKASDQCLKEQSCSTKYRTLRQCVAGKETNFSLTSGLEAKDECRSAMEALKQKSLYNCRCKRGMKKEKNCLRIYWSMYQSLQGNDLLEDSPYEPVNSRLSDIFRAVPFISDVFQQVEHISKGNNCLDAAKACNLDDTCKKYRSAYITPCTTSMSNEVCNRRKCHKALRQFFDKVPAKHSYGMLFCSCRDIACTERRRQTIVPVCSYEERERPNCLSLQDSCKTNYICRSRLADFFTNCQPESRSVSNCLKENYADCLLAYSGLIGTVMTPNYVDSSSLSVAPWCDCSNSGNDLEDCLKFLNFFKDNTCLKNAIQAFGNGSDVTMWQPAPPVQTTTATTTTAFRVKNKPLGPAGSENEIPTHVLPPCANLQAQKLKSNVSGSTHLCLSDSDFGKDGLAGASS
T1 sequence (P35546 29-1115): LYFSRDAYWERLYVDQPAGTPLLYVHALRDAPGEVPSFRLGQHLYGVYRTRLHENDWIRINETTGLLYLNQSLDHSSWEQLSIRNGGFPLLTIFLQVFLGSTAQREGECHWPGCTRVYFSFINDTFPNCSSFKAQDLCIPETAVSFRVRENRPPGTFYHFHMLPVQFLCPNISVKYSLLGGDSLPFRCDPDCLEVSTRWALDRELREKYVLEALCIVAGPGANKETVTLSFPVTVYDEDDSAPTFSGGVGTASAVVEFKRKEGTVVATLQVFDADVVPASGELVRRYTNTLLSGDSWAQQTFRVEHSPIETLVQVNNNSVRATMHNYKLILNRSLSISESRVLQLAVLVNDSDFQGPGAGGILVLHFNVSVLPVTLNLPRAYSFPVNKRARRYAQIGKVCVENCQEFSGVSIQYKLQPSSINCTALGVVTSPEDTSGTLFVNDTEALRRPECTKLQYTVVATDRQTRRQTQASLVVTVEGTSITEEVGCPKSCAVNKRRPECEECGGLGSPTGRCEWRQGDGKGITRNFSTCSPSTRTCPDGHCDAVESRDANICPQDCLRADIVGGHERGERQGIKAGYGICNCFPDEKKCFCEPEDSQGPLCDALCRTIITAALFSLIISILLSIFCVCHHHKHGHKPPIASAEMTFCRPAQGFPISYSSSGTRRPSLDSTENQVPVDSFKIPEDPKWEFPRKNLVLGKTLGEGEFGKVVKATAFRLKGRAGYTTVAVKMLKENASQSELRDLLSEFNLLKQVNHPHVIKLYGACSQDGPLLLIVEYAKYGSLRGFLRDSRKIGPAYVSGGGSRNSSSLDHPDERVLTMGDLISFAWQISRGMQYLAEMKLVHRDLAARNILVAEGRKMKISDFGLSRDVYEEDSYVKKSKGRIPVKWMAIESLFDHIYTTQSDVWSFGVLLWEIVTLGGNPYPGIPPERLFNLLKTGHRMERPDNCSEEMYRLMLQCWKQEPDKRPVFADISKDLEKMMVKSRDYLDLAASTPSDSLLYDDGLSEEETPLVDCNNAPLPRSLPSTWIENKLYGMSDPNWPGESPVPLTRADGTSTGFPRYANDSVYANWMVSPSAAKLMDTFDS
Method: (§2) Since the original report argued that XIB4035 displaces GDNF binding to GFRα1 expressing cells (FIG. 2 in Tokugawa et al., Neurochem Int 42, 81-86 (2003).), potentially ARTN, on TH-luciferase activity and Ret phosphorylation. […] In this experiment, cells were treated with GDNF or ARTN with or without XIB4035 for 10 minutes and cell lysates were either collected immediately or treatment was washed out and replaced with growth media for 30, 60, or 120 minutes. […] Therefore, we tested cells expressing only one GFRα using either N2A cells (which express RET) transfected with GFRα1 or GFRα3 expression constructs, or B(E)2-C cells, which express only GFRα2 together with RET. […] The GFRα1 or GFRα3 transfected N2A cells were then treated with XIB4035 alone, the appropriate ligand for the expressed receptor alone, or XIB4035 and ligand in combination for 10 minutes, and collected lysates immediately after treatment or 60 minutes after washout. […] Similar results were obtained with GFRα2 and NRTN using B(E)2-C cells (FIG. 8). Thus, XIB4035 is a positive modulator of signaling by GDNF family ligands and their receptors, not an agonist for GFRα1 as previously reported.
(§3) For phosphorylated Ret immunoblot experiments, cells were treated with various combinations of molecules for 10 minutes and either collected immediately or had treatment washed out and returned to control treatment media for the times indicated prior to cell collection. Lysates were collected in buffer containing: 50 mM Tris-HCL, 1% TX-100, 0.25% Deoxycholic acid, 150 mM sodium chloride, 1 mM EDTA, 0.1 mM sodium fluoride, 0.1 mM sodium pyrophosphate, 0.02 mM sodium orthovanadate, and protease inhibitors Immunoblots were blocked in 5% bovine serum albumin in tris-buffered saline+0.2% Tween 20+0.1 mM sodium fluoride, 0.1 mM sodium pyrophosphate, and 0.02 mM sodium orthovanadate and probed in blocking solution using anti-phospotyrosine (4G10) mouse monoclonal antibody (1:2000; EMD Milipore Corp., Billerica, Mass.). […]

[3] = test system: wild type mice; assay: Electron microscopy of sciatic nerve Remak bundles, wild type mice; type: in vivo, mouse; details: WT mice; XIB4035 cream 4 weeks
Method: as §1
The cream containing XIB4035 (1.5 mM, ZereneX Molecular Ltd., Manchester, UK) consisted of N-methyl-pyrrolidone (6.25%), isopropyl myristate (6.25%) and petroleum jelly (87.5%). Control cream had the same ingredients without XIB4035. Cream was applied twice daily to the hind paws of mice starting at P21 for a period of 4 weeks for prophylactic treatment of GFAP-DN-erbB4. Diabetic mice were treated twice daily for 8 weeks after streptozotocin (STZ) injection prior to onset of hyperglycemia and for another 8 weeks during neuropathy testing. Cream treatment in therapeutic studies using GFAP-DN-erbB4 mice was performed twice daily beginning after onset of SFN at P28 and either continued for 5 weeks (chronic treatment) or 1 week (acute treatment).
Tissue was prepared as in (Lacomis, supra). Briefly, mice were perfused intracardially with 2% paraformaldehyde, 2.5% gluteraldehyde and 0.03% picric acid in 0.1 M cacodylate buffer (pH 7.2). […]

[4] = biological target: T2, GFRα3/RET (UniProt O60609+P35546); assay: RET phosphorylation in N2A cells transfected with GFRα3; type: cell-based, human GFRα3 in murine N2A cells
T2 construct: N2A cells (which express RET) transfected with GFRα1 or GFRα3 expression constructs; expressed in transfected cells; host or cells: Neuro2A (N2A) cells; GFRα3 plasmid was a gift from Dr. Milbrandt; RET is endogenous
T2 sequence (O60609 32-374 limits assumed): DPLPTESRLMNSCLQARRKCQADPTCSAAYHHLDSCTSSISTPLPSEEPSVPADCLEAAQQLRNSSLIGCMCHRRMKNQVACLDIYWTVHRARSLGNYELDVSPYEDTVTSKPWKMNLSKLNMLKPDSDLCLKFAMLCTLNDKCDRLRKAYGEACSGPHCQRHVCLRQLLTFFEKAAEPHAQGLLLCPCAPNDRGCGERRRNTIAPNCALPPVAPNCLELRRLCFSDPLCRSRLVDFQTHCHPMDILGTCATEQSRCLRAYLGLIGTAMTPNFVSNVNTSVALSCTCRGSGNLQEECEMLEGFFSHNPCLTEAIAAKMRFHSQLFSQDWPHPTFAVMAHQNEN
T2 sequence (P35546 29-1115): as the sequence (P35546 29-1115) above
Method: as §2, §3

[5] = biological target: T3, TrkA (Rattus norvegicus, UniProt P35739); assay: NGF-induced TrkA phosphorylation in PC12 cells; type: cell-based; details: 50 ng/ml NGF with 20 μM XIB4035, 10 minutes; 15, 30 or 45 minutes after
T3 construct: endogenous in cells; host or cells: PC12 (PC-12) cells
T3 sequence (P35739 33-799): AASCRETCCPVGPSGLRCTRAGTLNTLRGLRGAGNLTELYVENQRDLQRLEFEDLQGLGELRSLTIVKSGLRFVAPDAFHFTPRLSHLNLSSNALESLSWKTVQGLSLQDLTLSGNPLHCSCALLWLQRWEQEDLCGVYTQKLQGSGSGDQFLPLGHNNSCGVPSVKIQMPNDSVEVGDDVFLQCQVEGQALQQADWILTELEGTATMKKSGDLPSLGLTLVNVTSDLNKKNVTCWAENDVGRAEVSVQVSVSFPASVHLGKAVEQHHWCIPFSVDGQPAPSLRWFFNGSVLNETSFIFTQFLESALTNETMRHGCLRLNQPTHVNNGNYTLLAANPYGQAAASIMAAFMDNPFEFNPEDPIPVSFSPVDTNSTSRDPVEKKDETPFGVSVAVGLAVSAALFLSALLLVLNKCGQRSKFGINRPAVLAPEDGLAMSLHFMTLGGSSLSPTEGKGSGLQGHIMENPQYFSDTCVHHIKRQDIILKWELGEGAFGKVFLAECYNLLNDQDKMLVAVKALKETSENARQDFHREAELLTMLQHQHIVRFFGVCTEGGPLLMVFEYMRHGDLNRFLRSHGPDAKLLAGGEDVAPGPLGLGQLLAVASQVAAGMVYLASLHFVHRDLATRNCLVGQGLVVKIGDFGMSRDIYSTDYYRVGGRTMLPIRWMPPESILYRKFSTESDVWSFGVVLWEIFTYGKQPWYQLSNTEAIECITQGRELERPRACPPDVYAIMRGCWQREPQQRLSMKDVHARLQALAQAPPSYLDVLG
Method: PC12 cells were treated with 50 ng/ml of NGF with or without 20 μM XIB4035 for 10 minutes. Cell lysates were either collected immediately or after cells were incubated in growth media for additional 15, 30, or 45 minutes. Cell lysates were subjected to immunoprecipitation using anti-TrkA antibodies and analysis via phospho-tyrosine Western blot. TrkA phosphorylation is not prolonged by addition of XIB4035.
as §3, with “Mass.). Secondary detection was performed in blocking solution using HRP-conjugated goat-anti-mouse antibodies (1:1000; MP Biolomedicals LLC, Solon, Ohio).” for “Mass.).”

[6] = XIB4035 and ligand co-treatment, 60 minutes after washout

`CCN(CC)CCCC(C)Nc1cc(/C=C/c2ccccc2Cl)nc2cc(Cl)ccc12` (centres unmarked) [XIB4035, N4-{7-chloro-2-[(E)-2-(2-chloro-phenyl)-vinyl]-quinolin-4-yl}-N1,N1-diethyl-pentane-1,4-diamine] was tested, and the “effect on mechano-reception (response thresholds to mechanical stimuli)” value [1] was “no effect”, the “induction of RET phosphorylation” value ([2]; XIB4035 alone, 10 minutes) was “did not induce RET phosphorylation” and the “RET phosphorylation at the 60 min time-point compared to ligand alone” value [2, 6] was “clearly prolonged”. The c-fiber area [3] was 1.81 ± 0.06 µm², the c-fibers/Remak bundle [3] was 8.80 ± 0.52 and the “induction of RET phosphorylation” value ([4]; XIB4035 alone, 10 minutes) was “did not induce RET phosphorylation”. The “RET phosphorylation at the 60 min time-point compared to ligand alone” value [4, 6] was “clearly prolonged” and the “NGF-induced TrkA phosphorylation” value [5] was “not prolonged”.
